Laboratory results from ChEMBL document CHEMBL1122994, “Effect of structural modification of the hydantoin ring on anticonvulsant activity” (J Med Chem, 1985).
Active and inactive are the calls of the source. No cut-off for these calls is given here.

Experiments:
[1] = system: Mus musculus; assay: Anticonvulsant activity was evaluated by maximal electroshock seizure (MES) test at dose 600 mg/kg; No activity; assay type: functional
[2] = system: Mus musculus; assay: Anticonvulsant activity was evaluated by Neurologic toxicity (the rotarod test) at dose 600 mg/kg; No activity; assay type: functional
[3] = system: Mus musculus; assay: Anticonvulsant activity was evaluated by subcutaneous pentylenetetrazole (Metrazol) (sc Met) seizure test at dose 600 mg/kg; No activity; assay type: functional
[4] = system: Mus musculus; assay: Anticonvulsant activity was evaluated by maximal electroshock seizure (MES) test at dose 600 mg/kg; 1=Noticeable activity; assay type: functional
[5] = system: Mus musculus; assay: Anticonvulsant activity was evaluated by subcutaneous pentylenetetrazole (Metrazol) (sc Met) seizure test at dose 100 mg/kg; 3=Noticeable activity; assay type: functional
[6] = system: Mus musculus; assay: Effective dose was evaluated by subcutaneous pentylenetetrazole (Metrazol) (sc Met) seizure test; assay type: functional
[7] = system: Mus musculus; assay: Anticonvulsant activity was evaluated by maximal electroshock seizure (MES) test at dose 300 mg/kg; 2=Noticeable activity; assay type: functional
[8] = Toxic dose was evaluated by neurological toxicity (the rotarod test); assay type: organism-based; conditions: mouse, in vivo
[9] = system: Mus musculus; assay: Anticonvulsant activity was evaluated by Neurologic toxicity (the rotarod test) at dose 600 mg/kg; 1=Noticeable activity; assay type: functional
[10] = species: Mus musculus; assay: Effective dose was evaluated by maximal electroshock seizure (MES) test; assay type: functional
[11] = system: Mus musculus; assay: Anticonvulsant activity was evaluated by subcutaneous pentylenetetrazole (Metrazol) (sc Met) seizure test at dose 30 mg/kg; assay type: functional
[12] = system: Mus musculus; assay: Anticonvulsant activity was evaluated by subcutaneous pentylenetetrazole (Metrazol) (sc Met) seizure test at dose 300 mg/kg; 2=Noticeable activity; assay type: functional
[13] = system: Mus musculus; assay: Anticonvulsant activity was evaluated by Neurologic toxicity (the rotarod test) at dose 300 mg/kg; 2=Noticeable activity; assay type: functional
[14] = system: Mus musculus; assay: Anticonvulsant activity was evaluated by maximal electroshock seizure (MES) test at dose 100 mg/kg; 3=Noticeable activity; assay type: functional
[15] = system: Mus musculus; assay: Effective dose was evaluated by subcutaneous pentylenetetrazole (Metrazol) (sc Met) seizure test; NE means not effective; assay type: functional, organism-based
[16] = system: Mus musculus; assay: Anticonvulsant activity was evaluated by subcutaneous pentylenetetrazole (Metrazol) (sc Met) seizure test at dose 600 mg/kg; 1=Noticeable activity; assay type: functional

CC1NC(=O)NC1=O (configuration not stated)
Activity [1]: 0
Activity [2]: 0
Activity [3]: 0

COc1cccc(CN2C(=O)NC(C)(C)C2O)c1 (configuration not stated)
Activity [4]: 1
Activity [2]: 0
Activity [3]: 0

O=C1NC(=O)C(c2ccccc2)N1 (configuration not stated)
Activity [5]: 3
ED50 [6]: 109 mg/kg
Activity [7]: 2
TD50 [8]: 399 mg/kg
Activity [9]: 1
ED50 [10]: 156 mg/kg

CC1NC(=O)N(Cc2ccccc2)C1=O (configuration not stated)
Activity [9]: 1
Activity [11]: 4
Activity [12]: 2

CCC1(c2ccccc2)NC(=O)N(C)C1=O (configuration not stated) [MEPHENYTOIN]
ED50 [6]: 31 mg/kg
ED50 [10]: 61 mg/kg

COc1cc2c(cc1OC)C1N(CC2)C(=O)NC1(C)C (configuration not stated)
Activity [1]: 0
Activity [9]: 1
Activity [3]: 0

CC1NC(=O)N(c2ccccc2)C1=O (configuration not stated)
Activity [1]: 0
Activity [9]: 1
Activity [3]: 0

CN1C(=O)CNC1=O
Activity [1]: 0
Activity [2]: 0
Activity [3]: 0

CC1(C)NC(=O)N(CCc2ccccc2)C1=O
ED50 [6]: 130 mg/kg
Activity [13]: 2
TD50 [8]: 243 mg/kg
Activity [12]: 2
ED50 [10]: 110 mg/kg
Activity [14]: 3

Cn1ccnc1O
Activity [1]: 0
Activity [2]: 0
Activity [3]: 0

O=C1CNC(=O)N1c1ccccc1
Activity [4]: 1
Activity [2]: 0
Activity [3]: 0

Oc1nc(-c2ccccc2)cn1Cc1ccccc1
Activity [1]: 0
Activity [2]: 0
Activity [3]: 0

O=C1NC(c2ccccc2)C(O)N1Cc1ccccc1 (configuration not stated)
Activity [1]: 0
Activity [2]: 0
Activity [3]: 0

O=C1NCC(O)N1c1ccccc1 (configuration not stated)
Activity [1]: 0
Activity [2]: 0
Activity [3]: 0

O=C1NC(=O)C(c2ccccc2)(c2ccccc2)N1 [PHENYTOIN]
ED50 [15]: inactive
ED50 [10]: 10 mg/kg

O=C1NC(c2ccccc2)C(O)N1c1ccccc1 (configuration not stated)
Activity [1]: 0
Activity [2]: 0
Activity [3]: 0

Cn1cc(-c2ccccc2)nc1O
Activity [4]: 1
Activity [16]: 1
Activity [2]: 0

CNC(=O)C(NC(C)=O)c1ccccc1 (configuration not stated)
Activity [1]: 0
Activity [2]: 0
Activity [3]: 0

COc1cccc(CCCN2C(=O)NC(C)(C)C2=O)c1
Activity [16]: 1
Activity [13]: 2
Activity [7]: 2

COc1cccc(CN2C(=O)NC(C)(C)C2=O)c1
Activity [4]: 1
Activity [2]: 0
Activity [3]: 0

Cc1cn(-c2ccccc2)c(O)n1
Activity [4]: 1
Activity [9]: 1
Activity [3]: 0

CN1C(=O)NCC1O (configuration not stated)
Activity [1]: 0
Activity [2]: 0
Activity [3]: 0

CC(N)C(=O)NCc1ccccc1 (configuration not stated)
Activity [13]: 2
Activity [7]: 2
Activity [3]: 0

CN1C(=O)NC(c2ccccc2)C1=O (configuration not stated)
Activity [5]: 3
ED50 [6]: 26 mg/kg
TD50 [8]: 271 mg/kg
Activity [9]: 1
ED50 [10]: 75 mg/kg
Activity [14]: 3

COc1cccc(CCCN2C(=O)NC(C)(C)C2O)c1 (configuration not stated)
Activity [7]: 2
Activity [9]: 1
Activity [12]: 2
